Reference: PMC5512079, “The sialate O-acetylesterase EstA from gut Bacteroidetes species enables sialidase-mediated cross-species foraging of 9-O-acetylated sialoglycans” (The Journal of Biological Chemistry, 2017)

Target: T1, B. thetaiotaomicron NanH sialidase (NanH-His) (Bacteroides thetaiotaomicron, UniProt Q8AAK9)
T1 construct: gene BT_0455
T1 sequence (Q8AAK9 23-544): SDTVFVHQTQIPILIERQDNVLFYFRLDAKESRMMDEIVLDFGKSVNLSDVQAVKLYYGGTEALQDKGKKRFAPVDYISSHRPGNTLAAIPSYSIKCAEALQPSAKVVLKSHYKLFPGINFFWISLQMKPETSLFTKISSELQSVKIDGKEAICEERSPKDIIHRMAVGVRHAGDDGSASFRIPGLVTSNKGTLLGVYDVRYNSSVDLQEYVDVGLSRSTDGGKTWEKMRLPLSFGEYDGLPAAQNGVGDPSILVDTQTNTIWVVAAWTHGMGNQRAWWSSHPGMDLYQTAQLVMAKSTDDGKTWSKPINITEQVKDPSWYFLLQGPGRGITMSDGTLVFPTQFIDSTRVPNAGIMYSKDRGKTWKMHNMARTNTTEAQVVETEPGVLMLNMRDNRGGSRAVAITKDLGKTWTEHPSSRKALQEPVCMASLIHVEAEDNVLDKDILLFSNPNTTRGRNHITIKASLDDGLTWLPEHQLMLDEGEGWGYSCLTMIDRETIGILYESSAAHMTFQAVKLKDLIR
Experiment: fluorogenic sialidase assay, 4-methylumbelliferone release (ex […] nm, em […] nm)
Assay type: biochemical
Conditions: 100 uM 4-MU-Sia, PBS pH 7.4; used to test fractions and estimate milliunits

With `CC(=O)N[C@H]1[C@H]([C@H](O)[C@H](O)CO)OC(Oc2ccc3c(C)cc(=O)oc3c2)(C(=O)O)C[C@@H]1O` (stereo partly shown) [4-methylumbelliferyl-N-acetylneuraminic acid] the “fluorogenic sialidase assay, 4-methylumbelliferone release (ex 365 nm, em 440 nm)” value was “Fractions were tested for activity with the fluorogenic sialidase substrate 4-methylumbelliferyl-N-acetylneuraminic acid”.
